Experimental data: publication PMC11573584, “Thanatin and vinyl sulfide analogues as narrow spectrum antimicrobial peptides that synergise with polymyxin B” (Frontiers in Pharmacology, 2024)
In brackets after ≈: the same amount, converted by molar mass. Read-outs that look alike come from different tables or passages of the source. Numbered stars: 1 amine (or outer) side, 2 acyl side, 3 side chain; on linkers, the order of the positions; unused ones are H or OH. Bridge positions count the residues as written; N and C are the ends. Square brackets hold non-standard residues; d marks the D form. Peptide text beside a SMILES is read from it. X1 = C=C(CC(=O)[*:1])[*:2]; X2 = C=C(CC(=O)[*:2])[*:1]; Dap = NC[C@H](N)C(=O)O

Tests used:
[1] = tested on: Staphylococcus aureus ATCC 29213; assay: microbe, parasite or virus in culture; format: cell-based; conditions: for MIC: read-out: Minimum inhibitory concentration (MIC)
Procedure: (§1) Staphylococcus aureus ATCC 29213, Pseudomonas aeruginosa (SVB-B9) (type strain) and Escherichia coli ATCC 25922 were grown in cation adjusted Mueller Hinton (MH) broth at 37°C with shaking (200 rpm). MIC assays were performed in accordance with the CLSI recommended protocols ([Clinical and Laboratory Standards Institute, 2006], Performance standards for antimicrobial susceptibility testing; sixteenth informational supplement. CLSI document M100-S16, Wayne, PA., 2006). See SI for further details.
(§2) 4 Antimicrobial Testing of Thanatin* (5) and Analogues 8 – 11
(§3) 4.1 Antibacterial Testing
(§4) Staphylococcus aureus ATCC 29213, Pseudomonas aeruginosa (SVB-B9) (type strain) and
(§5) Escherichia coli ATCC 25922 were grown in cation adjusted Mueller Hinton (CAMHB) broth at 37
(§6) °C with shaking (200 rpm). MIC assays were performed in accordance with the CLSI recommended
(§7) protocol (Clinical and Laboratory Standards Institute, 2006, Performance standards for antimicrobial
(§8) susceptibility testing; sixteenth informational supplement. CLSI document M100-S16, Wayne, PA.,
(§9) 2006). Briefly, a two-fold dilution series of the test compounds (from […], final) was
(§10) prepared in triplicate in polypropylene 96-well plates in CAMHB. Fresh cultures of bacteria grown for
(§11) ca. 6 h were diluted accordingly in fresh media before adding 50 µL of inoculum to each well of the
(§12) MIC plate, to achieve a final volume of 100 µL with a uniform CFU/ml of ~5 x105 in each well. A
(§13) growth control (untreated) and sterility control (non-inoculated) well was included for each test
(§14) compound replicate. Plates were incubated at 37 °C with shaking for 18 h before determining the MIC.
(§15) MIC values were determined as the lowest concentration at which no growth was observed consistently
(§16) across all three biological replicates of the assay and within triplicates of each test compound. […]

[2] = tested on: Candida albicans SC5314 (type strain); assay: microbe, parasite or virus in culture; format: cell-based; conditions: read-out: Minimum inhibitory concentration (MIC)
Procedure: Candida albicans SC5314 (type strain) was grown using RPMI 1640 media (with glutamine and phenol red, without bicarbonate). MIC assays were performed in accordance with the CLSI recommended protocol ([Clinical and Laboratory Standards Institute, 2006], Performance standards for antimicrobial susceptibility testing; sixteenth informational supplement. CLSI document M100-S16, Wayne, PA., 2006). See SI for further details. […]
Antimicrobial susceptibility of Candida albicans SC5314 (type strain) was assessed by broth
microdilution in accordance with the CLSI recommended protocols (Clinical and Laboratory Standards
Institute, 2006, Performance standards for antimicrobial susceptibility testing; sixteenth informational
supplement. CLSI document M100-S16, Wayne, PA., 2006). Briefly, a two-fold dilution series of the
test compounds (from 64 μM to 0.25 μM, final) was prepared in triplicate in polypropylene 96-well
plates, using RPMI 1640 media (with glutamine and phenol red, without bicarbonate). Inoculum was
prepared from a 24 h old culture by picking 5 colonies (~1 mm in diameter) and resuspending these in
0.85% saline. Upon vortex mixing, the resulting suspension was diluted to provide a solution with
absorbance equivalent to that of a 0.5 McFarland standard, approx. 0.1 OD at 530 nm (using 1 cm path
length cuvette). This suspension was then diluted 1:50 and a further 1:20 with RPMI 1640 media to as
to achieve a final inoculum of […] to 2.5 x 10^3 CFU/mL upon addition to the plate. The plates
were incubated at 35 °C for 48 h, at which time the MIC was determined as the lowest test concentration
at which no turbidity was observed across all three replicates. The assay was performed independently
on three occasions and the reported MIC defined as the lowest concentration in which agreement was
observed for all three biological replicates.

[3] = tested on: E. coli ATCC 25922; conditions: non-cation adjusted media, ref Wu et al. (2013); cited from earlier work
Text: (§17) TABLE 1 Minimum Inhibitory Concentrations (MICs) of thanatin* (5) and similar analogues against a variety of pathogens. | column: Minimum inhibitory concentration (µM) / Thanatin ^a ^, ^b (1); Minimum inhibitory concentration (µM) / S-Thanatin ^a (3) || TABLE 2 Minimum Inhibitory Concentrations (MICs) of thanatin* (5) and analogues (8–11) towards a variety of pathogens. | column: Minimum inhibitory concentration (µM) / 1 (Thanatin) ^a

[4] = tested on: P. aeruginosa; conditions: ref Cirioni et al., 2011, cited from earlier work
[5] = tested on: Pseudomonas aeruginosa (SVB-B9) (type strain); format: cell-based; conditions: 18 h
Procedure: as §1, §2, §3, §4, §5, §6, §7, §8, §9, §10, §11, §12, §13, §14, §15, §16

[6] = tested on: Escherichia coli ATCC 25922; format: cell-based
Procedure: as §1, §2, §3, §4, §5, §6, §7, §8, §9, §10, §11, §12, §13, §14, §15, §16

[7] = tested on: E. coli BL21; conditions: non-cation adjusted media, ref Sinha et al. (2022); cited from earlier work
Text: (§18) TABLE 1 Minimum Inhibitory Concentrations (MICs) of thanatin* (5) and similar analogues against a variety of pathogens. | column: Minimum inhibitory concentration (µM) / Thanatin ^a ^, ^b (1); Minimum inhibitory concentration (µM) / Thanatin M21F ^b (4)

[8] = tested on: P. aeruginosa ATCC 27853; conditions: non-cation adjusted media, ref Sinha et al. (2022); cited from earlier work
Text: as §18

[9] = tested on: S. aureus ATCC 25923; conditions: non-cation adjusted media, ref Sinha et al. (2022); cited from earlier work
Text: as §17, with “Thanatin M21F ^b (4)” for “S-Thanatin ^a (3)”

Compound	MIC ([1]; ATCC 29213, 18 h)	Minimum inhibitory concentration (MIC) ([5]; SVB-B9) (type strain)	Minimum inhibitory concentration (MIC) ([6]; ATCC 25922, 18 h)	MIC ([2]; SC5314, 48 h)	other results
CC1(C)S[C@@H]2[C@H](NC(=O)[C@H](N)c3ccc(O)cc3)C(=O)N2[C@H]1C(=O)O [AMX, amoxicillin, reference compound]	–	–	–	–	MIC ([1]; Staphylococcus aureus, ATCC29213, S. aureus ATCC 29213, cation adjusted Mueller Hinton broth, 37 °C, 18 h, ~5 x10^5 CFU/mL, triplicate, three biological replicates): 2 µM (≈ 0.731 µg/mL)
C[C@@H]1[C@H](O)[C@@H](C)/C=C/C=C/C=C/C=C/C=C/C=C/C=C/[C@H](O[C@@H]2O[C@H](C)[C@@H](O)[C@H](N)[C@@H]2O)C[C@@H]2O[C@](O)(C[C@@H](O)C[C@@H](O)[C@H](O)CC[C@@H](O)C[C@@H](O)CC(=O)O[C@H]1C)C[C@H](O)[C@H]2C(=O)O [AMB, amphotericin B, reference compound]	–	–	–	–	MIC ([2]; Candida albicans, C. albicans SC5314, RPMI 1640 media, 35 °C, 48 h, triplicate, three independent assays): 1 µM (≈ 0.924 µg/mL)
S-thanatin [S-Thanatin (3)]	–	–	–	–	Minimum inhibitory concentration (MIC) [3]: 1.6 µM; FICI ([4]; S-thanatin with colistin (polymyxin E)): 0.46; MIC [4]: 16 µg/mL
C=C1CC(=O)NC[C@H](NC(=O)[C@H](Cc2ccc(O)cc2)NC(=O)[C@@H](NC(=O)[C@@H](NC(=O)[C@@H]2CCCN2C(=O)[C@@H](NC(=O)[C@@H]2CCCN2C(=O)[C@H](CCCCN)NC(=O)[C@H](CCCCN)NC(=O)[C@H](CO)NC(=O)CN)C(C)C)[C@@H](C)CC)[C@@H](C)CC)C(=O)N[C@@H](CC(N)=O)C(=O)N[C@@H](CCCNC(=N)N)C(=O)N[C@@H](CCCNC(=N)N)C(=O)N[C@@H](CO)C(=O)NCC(=O)N[C@@H](CCCCN)C(=O)N[C@H](C(=O)N[C@@H](CCC(N)=O)C(=O)N[C@@H](CCCNC(=N)N)C(=O)N[C@@H](Cc2ccccc2)C(N)=O)CS1 [compound 9] (H-GSKKPVPIIY[Dap]NRRSGKCQRF-NH2; linker 11-18 via X1)	>64 µM	>64 µM	16 µM (≈ 39.8 µg/mL)	>64 µM	reduction in potency compared to thanatin* (5) ([6]; E. coli ATCC 25922 MIC): 16 fold
C=C1CC(=O)NCCCC[C@@H](C(=O)N[C@@H](CCC(N)=O)C(=O)N[C@@H](CCCNC(=N)N)C(=O)N[C@@H](Cc2ccccc2)C(N)=O)NC(=O)[C@H](CCCCN)NC(=O)CNC(=O)[C@H](CO)NC(=O)[C@H](CCCNC(=N)N)NC(=O)[C@H](CCCNC(=N)N)NC(=O)[C@H](CC(N)=O)NC(=O)[C@@H](NC(=O)[C@H](Cc2ccc(O)cc2)NC(=O)[C@@H](NC(=O)[C@@H](NC(=O)[C@@H]2CCCN2C(=O)[C@@H](NC(=O)[C@@H]2CCCN2C(=O)[C@H](CCCCN)NC(=O)[C@H](CCCCN)NC(=O)[C@H](CO)NC(=O)CN)C(C)C)[C@@H](C)CC)[C@@H](C)CC)CS1 [compound 10] (H-GSKKPVPIIYCNRRSGKKQRF-NH2; linker 11-18 via X2)	>64 µM	>64 µM	4 µM (≈ 10.1 µg/mL)	>64 µM	–
C=C1CC(=O)NC[C@@H](C(=O)N[C@@H](CCC(N)=O)C(=O)N[C@@H](CCCNC(=N)N)C(=O)N[C@@H](Cc2ccccc2)C(N)=O)NC(=O)[C@H](CCCCN)NC(=O)CNC(=O)[C@H](CO)NC(=O)[C@H](CCCNC(=N)N)NC(=O)[C@H](CCCNC(=N)N)NC(=O)[C@H](CC(N)=O)NC(=O)[C@@H](NC(=O)[C@H](Cc2ccc(O)cc2)NC(=O)[C@@H](NC(=O)[C@@H](NC(=O)[C@@H]2CCCN2C(=O)[C@@H](NC(=O)[C@@H]2CCCN2C(=O)[C@H](CCCCN)NC(=O)[C@H](CCCCN)NC(=O)[C@H](CO)NC(=O)CN)C(C)C)[C@@H](C)CC)[C@@H](C)CC)CS1 [compound 11] (H-GSKKPVPIIYCNRRSGK[Dap]QRF-NH2; linker 11-18 via X2)	>64 µM	>64 µM	8 µM (≈ 19.9 µg/mL)	>64 µM	–
thanatin M21F [Thanatin M21F (4)]	–	–	–	–	Minimum inhibitory concentration (MIC) [7]: 0.5 µM; Minimum inhibitory concentration (MIC) [8]: 0.5 µM; Minimum inhibitory concentration (MIC) [9]: 0.5 µM
C=C1CC(=O)NCCCC[C@H](NC(=O)[C@H](Cc2ccc(O)cc2)NC(=O)[C@@H](NC(=O)[C@@H](NC(=O)[C@@H]2CCCN2C(=O)[C@@H](NC(=O)[C@@H]2CCCN2C(=O)[C@H](CCCCN)NC(=O)[C@H](CCCCN)NC(=O)[C@H](CO)NC(=O)CN)C(C)C)[C@@H](C)CC)[C@@H](C)CC)C(=O)N[C@@H](CC(N)=O)C(=O)N[C@@H](CCCNC(=N)N)C(=O)N[C@@H](CCCNC(=N)N)C(=O)N[C@@H](CO)C(=O)NCC(=O)N[C@@H](CCCCN)C(=O)N[C@H](C(=O)N[C@@H](CCC(N)=O)C(=O)N[C@@H](CCCNC(=N)N)C(=O)N[C@@H](Cc2ccccc2)C(N)=O)CS1 [compound 8] (H-GSKKPVPIIYKNRRSGKCQRF-NH2; linker 11-18 via X1)	>64 µM	>64 µM	4 µM (≈ 10.1 µg/mL)	>64 µM	–
CC[C@H](C)[C@H](NC(=O)[C@@H](NC(=O)[C@@H]1CCCN1C(=O)[C@@H](NC(=O)[C@@H]1CCCN1C(=O)[C@H](CCCCN)NC(=O)[C@H](CCCCN)NC(=O)[C@H](CO)NC(=O)CN)C(C)C)[C@@H](C)CC)C(=O)N[C@@H](Cc1ccc(O)cc1)C(=O)N[C@H]1CSSC[C@@H](C(=O)N[C@@H](CCC(N)=O)C(=O)N[C@@H](CCCNC(=N)N)C(=O)N[C@@H](Cc2ccccc2)C(N)=O)NC(=O)[C@H](CCCCN)NC(=O)CNC(=O)[C@H](CO)NC(=O)[C@H](CCCNC(=N)N)NC(=O)[C@H](CCCNC(=N)N)NC(=O)[C@H](CC(N)=O)NC1=O [Thanatin* (5), thanatin*] (H-GSKKPVPIIYCNRRSGKCQRF-NH2; disulfide 11-18)	>64 µM	>64 µM	1 µM (≈ 2.43 µg/mL)	>64 µM	Minimum inhibitory concentration (MIC) ([1]; S. aureus ATCC 29213, cation adjusted Mueller Hinton broth, 37 °C, 18 h, ~5 x10^5 CFU/mL, triplicate, three biological replicates): no activity; selectivity towards E. coli over P. aeruginosa ([6]; ratio of MICs, P. aeruginosa (SVB-B9) vs E. coli ATCC 25922, cation adjusted media): > 64 fold
polymyxin B [PMB, reference compound]	–	–	–	–	Minimum inhibitory concentration (MIC) ([5]; P. aeruginosa (SVB-B9) type strain, cation adjusted Mueller Hinton broth, 37 °C, ~5 x10^5 CFU/mL, triplicate, three biological replicates): 0.125 µM; Minimum inhibitory concentration (MIC) ([6]; E. coli ATCC 25922, cation adjusted Mueller Hinton broth, 37 °C, 18 h, ~5 x10^5 CFU/mL, triplicate, three biological replicates): 0.125 µM
